Assay results as given in patent US4863899A, “Biologically active polypeptides” (priority 1987, dated 1989).
Like-named read-outs stand apart in the source and are kept apart here. Positions of bridges follow the written chain, without caps; N, C: chain ends. Residues, ends and D or L forms follow the SMILES beside them. No end group written: not given here.

Legend:
[1] = test system: antiserum against peptide III; test: Radioimmunoassay, inhibition of precipitation of 125I-peptide III; type: binding, rabbit; conditions: for Relative Inhibitory Activity: half-maximal inhibitory concentration relative to peptide III, standard RIA, > = highest concentration tested
Protocol: Rabbits were immunized by subcutaneous injection of 1 mg of conjugate injected subcutaneously at four separate sites. Two booster injections were administered at bi-weekly intervals following the initial injection. The serum used in this study was collected eighty days after the initial injection. An immunoglobulin fraction of this serum was prepared by ammonium sulfate precipitation. The product of antibodies specific for immunizing peptide was monitored with a solid phase enzyme-linked immunoabsorbent assay.
Reactants were mixed in a final volume of 50 microliters of a solution containing: 20 mM sodium phosphate, at pH 7.4; 200 mM NaCl: 40 mM dithiothreitol; 0.1% (w:v) BSA; 0.1% (w:v) NaN3 : ^125 I-peptide III; (10^4 cpm); antiserum at a final dilution of 1/15,000; and other additions, as specified. The reaction was initiated by the addition of antiserum and continued at 23° C. for 90 minutes. An equal volume of 10% formalin-fixed Staphalococcus A (Pansorbin, Calbiochem) was then added and incubation was continued for an additional 30 minutes at 23° C. The immunoadsorbant was removed by sedimentation through a cushion of 10% (w:v) sucrose and the amount of bound ^125 I-peptide III was determined using a gamma counter. Under these conditions, approximately 25% of ^125 I-peptide was bound by antibody in the absence of competitor. The amount of bound peptide III was corrected for non-specific binding measured in the absence of antibody (less than 5% of the total) and expressed as a percentage of maximal binding. Concentrations of competitors were expressed as the amount of peptide III required to give an equivalent inhibition of precipitation.

[2] = target: T1, EGF receptors on A-431 human epidermoid carcinoma cells (Homo sapiens, UniProt P00533); test: Radioreceptor assay, 125I-EGF binding to cells (Example XII)
T1 construct: A-431 human epidermoid carcinoma cells or human foreskin fibroblasts (HFF); endogenous in cells; host or cells: A-431 human epidermoid carcinoma cells
Protocol: (§1) A-431 human epidermoid carcinoma cells or human foreskin fibroblasts (HFF), established from primary cultures, were grown to confluence in 24-well cluster dishes (Costar) in Dulbecco's […] (DMEM, Gibco) containing 10% fetal calf serum (FCS, Hyclone). EGF was radio-iodinated as above to between 4×10^4 and 8×10^4 cpm/ng protein. Cells were incubated at 4° C. for 60 minutes with 1 nM [^125 I]EGF in the presence of inhibitor peptides in DMEM ([…]; 20 mM Hepes) containing 0.1% BSA. Cells were washed 3× with cold buffer, lysed with 0.1 N NaOH, and cell-associated radioactivity was measured (γ-counter). Nonspecific binding assessed in the presence of a 100× excess of cold EGF was less than 5% and 10% of the specific binding for A-431 and HFF cells, respectively.

[3] = target: T2, EGF receptors on human foreskin fibroblasts (HFF) (Homo sapiens, UniProt P00533); test: as above
T2 construct: human foreskin fibroblasts (HFF), established from primary cultures; endogenous in cells; host or cells: human foreskin fibroblasts (HFF), primary-culture derived
Protocol: as §1

[4] = test system: EGF-induced DNA synthesis in quiescent HFF; test: Cell proliferation assay, inhibition of EGF-induced mitogenesis; type: cell-based, human; conditions: 3H-methylthymidine incorporation in quiescent HFF induced by 1 nM EGF
Protocol: (§2) HFF cells were grown to confluence in 48-well cluster dishes in DMEM-10% FCS and brought to quiescence by starvation for 2 days in DMEM-0.5% FCS. Mitogens and peptides were incubated with cells at 37° C. for 18 hours prior to a 4 hour pulse with 1 μCi [^3 H]methyl-thymidine (NEN) and trichloroacetic acid precipitable radioactivity was determined.

[5] = test system: TGFα-induced DNA synthesis in quiescent HFF; test: Cell proliferation assay, inhibition of TGFα-induced mitogenesis; type: cell-based, human; conditions: 3H-methylthymidine incorporation in quiescent HFF induced by 1 nM TGFα
Protocol: as §2

second degree burns = test: Wound healing of second degree burns, planimetry (Example VII); type: in vivo, Yorkshire piglet; conditions: once a day, after 7 days
Protocol: Another experiment was performed to measure the effect of the analog of human TGF described above on the healing of second degree burns. The experimental conditions were similar to those described above. However, the following changes were made in the procedures. One Yorkshire piglet was anesthetized with Ketamine and each of 12 burns was made using the template for 11 seconds per burn. After each blister was removed, the wounds were treated once a day with one of the following:
After 7 days, the eschar was removed.

anti-KLH-peptide 1 IgG = test: Solid phase RIA, 125I anti-KLH-peptide 1 IgG on BSA-peptide 1; type: binding, rabbit
Protocol: TGF peptide 1 was coupled to keyhole limpet hemocyanin (KLH) or bovine serum albumin (BSA) by thiol/maleimide linkage (King et al. (1979) J. Immunol. Methods 28, pp. 201-206). Carrier-peptide complexes were purified by gel filtration. An average of 60 moles peptide/mole KLH and 20 moles peptide/mole BSA was achieved. Rabbits were immunized with the KLH-peptide 1 conjugate by multiple subcutaneous (s.c.) and intramuscular (i.m.) injections of 2 mg protein in complete Freund's adjuvant. Rabbits were boosted s.c. every two weeks with the immunogen in incomplete Freund's adjuvant. The IgG fraction of the antiserum after 5 boosts was used for immunoassays and radiolabeled using Na^125 I (NEN) and Enzymobeads (Bio-Rad) to 4×10^5 cpm/μg protein. Polyvinyl chloride 96-well plates (Costar) were coated with 200 μg/mL BSA-peptide 1 conjugate and countercoated with 10% normal rabbit serum in phosphate-buffered saline. Plates were incubated for 4 hours at 37° C. with [^125 I]anti-KLH-peptide 1 IgG (50,000 cpm/well) in the presence or absence of inhibitors, washed and individual wells were counted.

[6] = A-431 cells, read-out: IC50, inhibition of 125I-EGF binding
[7] = 1 nM 125I-EGF, read-out: Binding IC50 (M) HFF

## CHSGYVGVRC (cysteine pairing not given here) [Peptide II]
[1]
  highest concentration without inhibition of precipitation of 125I-peptide III: > 1.1 µM
  Relative Inhibitory Activity: > 1500

## Ac-Cys-His-Ser-Gly-Tyr-Val-Gly-Ala-Arg-Cys-OMe (Ac-CHSGYVGARC-OMe; disulfide 1-10 (inferred)) [Peptide 3]
[2]; 1 nM 125I-EGF, read-out: Binding IC50 (M) A-431
  IC50: 4e-07 M
[2]; A-431 cells
  binding potency as % of EGF or TGF-α: ~0.2%
[2]; [6]
  IC50: 4e-07 M
[3]; [7]
  IC50: 3e-07 M
[4]
  IC50: 600 nM
[5]
  IC50: 500 nM

## hEGF: Human EGF
Second degree burns; 0.1 μg/ml in Silvadene
  PERCENTAGE OF WOUND HEALED Burn A: 17 percentage
  PERCENTAGE OF WOUND HEALED Burn B: 14 percentage
Second degree burns; 1 μg/ml in Silvadene
  PERCENTAGE OF WOUND HEALED Burn A: 14 percentage
  PERCENTAGE OF WOUND HEALED Burn B: 17 percentage

## CHSGYVGVRCEHADLLA (cysteine pairing not given here) [Peptide III]
[1]
  Relative Inhibitory Activity: 1

## VVSHFNKCPDSHT [Peptide I]
[1]; compared with peptide III
  inhibition of precipitation of 125I-peptide III, in words: ineffective as a competitor
[1]
  Relative Inhibitory Activity: > 1500

## CC(=O)N[C@H]1CSSC[C@@H](C(N)=O)NC(=O)[C@H](CCCNC(=N)N)NC(=O)[C@H](C(C)C)NC(=O)CNC(=O)[C@H](C(C)C)NC(=O)[C@H](Cc2ccc(O)cc2)NC(=O)CNC(=O)[C@H](CO)NC(=O)[C@H](Cc2c[nH]cn2)NC1=O [Peptide 2] (Ac-CHSGYVGVRC-NH2; disulfide 1-10)
[2]; A-431 cells
  binding potency as % of EGF or TGF-α: approximately 0.02%
[2]; [6]
  IC50: 4e-06 M
[3]; [7]
  IC50: 2e-06 M
[4]
  IC50: 5000 nM
[5]
  IC50: 3000 nM

## CC(C)[C@@H]1NC(=O)CNC(=O)[C@H](C(C)C)NC(=O)[C@H](Cc2ccc(O)cc2)NC(=O)CNC(=O)[C@H](CO)NC(=O)[C@H](Cc2c[nH]cn2)NC(=O)[C@@H](N)CSSC[C@@H](C(=O)O)NC(=O)[C@H](CCCNC(=N)N)NC1=O [Peptide 1] (H-CHSGYVGVRC-OH; disulfide 1-10)
anti-KLH-peptide 1 IgG
  inhibition of antibody reaction with BSA-TGF peptide: inhibited in a concentration-dependent fashion
[2]
  IC50: 8e-05 M
[2]; at >10^-6 M
  inhibition of 125I-EGF binding to A-431 cells, in words: partially inhibited
[3]
  IC50: 6e-05 M
[4]
  IC50: > 10000 nM
[5]
  IC50: > 10000 nM
